Converted amounts (≈) assume the structure as drawn. Like-named read-outs stand apart in the source and are kept apart here. Marks after values point to notes of the source that are not given here.
Experiments:
[1] = tested on: MCF10F normal mammary epithelial cells; assay: Cell proliferation, cell count (Coulter Counter); assay type: cell-based, human; conditions: 96 h
MDA-MB-453 cells [2] = assay: Combination with chemotherapy agents, cell count, combination index (CI); assay type: cell-based, human
NF-κB promoter = assay: NF-κB reporter assay (luciferase); assay type: cell-based, human; conditions: MDA-MB-453, 24 h
Procedure: The cyclin D1 promoter luciferase reporter plasmid, 1745CD1LUC, was prepared by Dr. R. Pestell (Albert Einstein Cancer Center, New York, N.Y.). The method used for transient transfection reporter assays was previously described (Soh et al., Novel roles of specific isoforms of protein kinase C in activation of the c-fos serum response element. Molecular and Cellular Biology, 19:1313-24, 1999). Using lipofectin, triplicate samples of MDA-MB-453 breast cancer cells (1×10^5 cells in 35-mm plates) were co-transfected using DNA of the indicated reporter plasmid (1 μg) and the β-gal plasmid as an internal control (10 μg of the pCMV-b-gal plasmid) in opti-MEM 1 medium (Life Technologies, Inc.). After 24 h, the medium was replaced with serum-free medium containing the indicated concentrations of actein. After 24 h, cells were harvested, and luciferase activity was determined with the luciferase assay system (Promega Corp. Madison, Wis.); β-gal activities were determined with the β-gal enzyme assay system (Promega). Luciferase activities were normalized to β-gal activities, to correct for differences in transfection efficiency.
NF-κB reporter assay. The NE-κB promoter luciferase reporter plasmid was from Dr. Jae Won Soh. The method for transient transfection reporter assays was as previously described.

rat liver mRNAs = assay type: in vivo, Sprague-Dawley rats; conditions: 35.7 mg/kg
Source text: Total RNA was isolated using Trizol (Invitrogen, CA), and purified with the RNeasy Kit (Qiagen, CA). mRNA sequences were obtained from the public GeneBank database (www.ncbi.nlm.nih.gov), and primers were designed using Primer3 software from The Massachusetts Institute of Technology (frodo.wi.mit.edu/cgi-bin/primer3/primer3_www.cgi).

[3] = tested on: rat liver gene expression
[4] = tested on: cyclin D1 and p21 mRNA in MDA-MB-453 cells; assay: RT-PCR of mRNA; assay type: cell-based, human
Na^+-K^+-ATPase = assay: Enzymatic assay of adenosine 5′-triphosphatase; assay type: biochemical; conditions: 20 μM
Procedure: Enzymatic assay of adenosine 5′-triphosphatase. The enzymatic assay of ATPase (adenosine 5′-triphosphatase, EC 3.6.1.3) followed the Sigma Prod. […] [P] was determined by the Taussky-Shorr method.

MDA-MB-453 cells [5] = assay type: cell-based, human
Procedure: RNA was isolated as previously described. […] Total RNA (8 μg) was reverse transcribed with T7-(dT)24 primer and Super Script III reverse transcriptase (Invitrogen). After purification, cDNA was in vitro transcribed into biotin labeled antisense cRNA with the BioArray high yield RNA transcript labeling kit (Enzo Life Sciences; Farmingdale, N.Y.), according to a modified Affymetrix protocol. cRNA (15 μg) was fragmented into the final probe and hybridized to human U133A 2.0 gene chips (Affymetrix, Inc.; Santa Clara, Calif.), comprised of more than 22,000 probe sets. The Institute for Cancer Genetics Core Facility at the Columbia Genome Center performed the hybridization.
Two or three replicates of each microarray were performed to determine intrasample variation. To bolster the robustness of the analysis, the effects of 4 doses for 2 time periods were examined.
All analyses were performed using the AffyLimmaGUI package in the open-source Bioconductor suite, as previously described. […] Variability is reported in terms of a p-value representing the probability that differences between treated and untreated could occur by chance. The p-value takes into account both the variability within groups (in this case the groups are treated and control) and the variability between groups.

[6] = rat liver, actein 35.7 mg/kg, 6 hours, vs control
[7] = rat liver, actein 35.7 mg/kg, 24 hours, vs control

## CC(=O)O[C@@H]1C[C@@]23C[C@@]24CC[C@H](O[C@@H]2OC[C@@H](O)[C@H](O)[C@H]2O)C(C)(C)[C@@H]4CC[C@H]3[C@]2(C)C[C@@H]3O[C@]4(C[C@@H](C)[C@@H]3[C@@]12C)O[C@H](O)[C@@]1(C)O[C@@H]41 [actein]
[1]; Homo sapiens, MCF-10F, MCF10F cells
  IC50: 42 µg/mL (≈ 62.1 µM)
[1]; MCF10F, 20 μg/ml
  cells alive: 63.8%±1.4
MDA-MB-453 cells [2]; actein 1
  number of viable cells, average: 148202.7
MDA-MB-453 cells [2]; actein 10
  number of viable cells, average: 106747.3
MDA-MB-453 cells [2]; actein .1 (μg/ml), 96 h
  number of viable cells, average: 174798.3
NF-κB promoter; 20 μg/ml
  NF-kB promoter activity: 1.59 fold
NF-κB promoter; 40 μg/ml
  NF-kB promoter activity: 0.12 fold
Rat liver mRNAs; 6 h
  Fold-change relative to control, BZRP, RT-PCR: 0.07
  Fold-change relative to control, CCND1, RT-PCR: 0.52
  Fold-change relative to control, HMGCR, RT-PCR: −0.45
  Fold-change relative to control, HMGCS1, RT-PCR: −0.82
  Fold-change relative to control, HSD17B7, RT-PCR: −0.66
  Fold-change relative to control, ID3, RT-PCR: 0.30
  Fold-change relative to control, NQO1, RT-PCR: −0.50
  Fold-change relative to control, S100A9, RT-PCR: −0.36
Rat liver mRNAs; 24 h
  Fold-change relative to control, BZRP, RT-PCR: 1.13
  Fold-change relative to control, CCND1, RT-PCR: −2.32
  Fold-change relative to control, HMGCR, RT-PCR: 0.45
  Fold-change relative to control, HMGCS1, RT-PCR: 1.44
  Fold-change relative to control, HSD17B7, RT-PCR: 1.21
  Fold-change relative to control, ID3, RT-PCR: −1.52
  Fold-change relative to control, NQO1, RT-PCR: 1.73
  Fold-change relative to control, S100A9, RT-PCR: 2.92
[3]; actein 35.7 mg/kg, 6 hours
  ATP synthase expression, fold-change (log): −0.05
  number of genes with significant change (p<0.05) in transcription level: 297
[3]; actein 35.7 mg/kg, 6 hours, rat liver
  erythropoietin expression, fold-change (log): −0.22
[3]; actein 35.7 mg/kg, 24 hours
  C4BP expression, fold-change (log): 0.17
  CXCL1 expression, fold-change (log): 0.44
  FDPS expression, fold-change (log): 0.34
  HMGCS expression, fold-change (log): 0.36
  IPP expression, fold-change (log): 0.80
  S100A9 expression, fold-change (log): 0.79
  SCD1 expression, fold-change (log): −1.28
  number of genes with significant change (p<0.05) in transcription level: 1335
[3]; female, Sprague-Dawley, rat, in vivo, 6 h
  PPS, Hepatic inflammatory infiltrate, centrilobular signature: 0.58
[3]; female, Sprague-Dawley, rat, in vivo, 24 h
  PPS, Hepatic inflammatory infiltrate, early gene expression signature: 0.56
[3]; [6]
  Fold-change (log) ATP5I (1387019_at): −0.05*
  Fold-change (log) EPO (1387308_at): −0.22^†
[3]; [7]
  Fold-change (log) ACOX1 (1367680_at): −0.17*
  Fold-change (log) C4BP, Complement component 4 binding protein, alpha (1369764_at): 0.09*
  Fold-change (log) C4BP, Complement component 4 binding protein, beta (1368695_at): 0.17*
  Fold-change (log) C5 (1383425_at): 0.18*
  Fold-change (log) CD44 (1387952_a_at): 0.08*
  Fold-change (log) CXCL1 (1387316_at): 0.44*
  Fold-change (log) FDPS (1367667_at): 0.34*
  Fold-change (log) HMGCS1 (1367932_at): 0.36^†
  Fold-change (log) IPP (1388872_at): 0.80*
  Fold-change (log) MG3PDH (1387670_at): −0.38*
  Fold-change (log) S100A9 (1387125_at): 0.79*
  Fold-change (log) SAP (1367804_at): −0.04*
  Fold-change (log) SCD1 (1370355_at): −1.28*
[4]; 3 h, 20 μg/ml
  p21 mRNA (RT-PCR): 0.92 fold
[4]; 3 h, 40 μg/ml
  p21 mRNA (RT-PCR): 1.03 fold
[4]; 10 h, 20 μg/ml
  p21 mRNA (RT-PCR): 1.06 fold
[4]; 10 h, 40 μg/ml
  p21 mRNA (RT-PCR): 1.19 fold
[4]; 24 h, 20 μg/ml
  p21 mRNA (RT-PCR): 0.92 fold
[4]; 24 h, 40 μg/ml
  p21 mRNA (RT-PCR): 1.46 fold

## C[C@H]1O[C@@H](O[C@H]2[C@@H](O)C[C@H](O[C@H]3[C@@H](O)C[C@H](O[C@H]4CC[C@@]5(C)[C@H](CC[C@@H]6[C@@H]5CC[C@]5(C)[C@@H](C7=CC(=O)OC7)CC[C@]65O)C4)O[C@@H]3C)O[C@@H]2C)C[C@H](O)[C@@H]1O [digitoxin]
Na^+-K^+-ATPase
  percent inhibition of in vitro Na^+-K^+-ATPase activity: 35.2%
MDA-MB-453 cells [5]; digitoxin 20 ng/ml, 24 hours
  number of genes with significantly altered expression: 22
MDA-MB-453 cells [5]; digitoxin 0.1 μg/mL, 6 hours
  number of genes altered: 2
MDA-MB-453 cells [5]; digitoxin 0.1 μg/mL, 24 hours
  number of genes altered: 8
MDA-MB-453 cells [5]; digitoxin 0.2 μg/mL, 6 hours
  number of genes altered: 6
MDA-MB-453 cells [5]; digitoxin 0.2 μg/mL, 24 hours
  number of genes altered: 88
MDA-MB-453 cells [5]; digitoxin 1 μg/mL, 6 hours
  number of genes altered: 87
MDA-MB-453 cells [5]; digitoxin 1 μg/mL, 24 hours
  number of genes altered: 1491

Reference: patent publication US20120208776A1 (priority 2002, published 2012)
